This is an account of results in article PMC10746053, “Development of Novel Pyrrole Derivatives and Their Cinnamic Hybrids as Dual COX-2/LOX Inhibitors” (Molecules, 2023).

The nature of data set [1]: Experimental lipophilicity as RM values by reversed-phase TLC. The data set is classed as physicochemical. The conditions noted are these: RPTLC, methanol/water 70/30 v/v, five measurements. The source says: Lipophilicity is one of the most studied physicochemical properties in the drug discovery process and is frequently employed in structure–activity relationship (SAR) studies. It contributes to the ADMET (absorption, distribution, metabolism, excretion, toxicity) properties, solubility, permeability to the potency and efficacy of drugs. […] In TLC, the retention parameter, RF, is defined as the ratio between the migration distances of the compound and of the mobile phase, both measured from the sample application position. The term RM was introduced to facilitate a linear relationship with the log P values, and it is defined as similar to the capacity factor, k, in HPLC.
Reversed-phase thin-layer chromatography (RPTLC) was used for the determination of RM values. Silica gel plates were saturated with 5% v/v liquid paraffin in petroleum ether. The mobile phase consisted of a methanol/water mixture (70/30, v/v). The plates were developed in closed chromatography tanks saturated with the mobile phase. Spots were detected under UV light or after exposure to iodine vapor. RM values were calculated from the corresponding Rf values (from five individual measurements) using […]. RM = log[(1/Rf) − 1], (2) where Rf is obtained by dividing the distance covered by the sample by the distance covered by the mobile phase.

Data set [2] can be described thus: Inhibition of linoleic acid lipid peroxidation (AAPH). The conditions noted are these: 37 °C, ± SD. The source says:
It is widely known that oxidative stress can induce lipid peroxidation. One of the major end products of the latter process are lipid-derived aldehydes, such as malondialdehyde (MDA), which is more chemically stable and membrane-permeable than ROS. These lipid aldehydes can participate in cross-linking with DNA and proteins and subsequently facilitate the development of various pathological states. Herein, we used the water-soluble 2,2′-azobis(2-methylpropionamidine) dihydrochloride (AAPH) as a free radical initiator for the in vitro antioxidant assay due to its ability to generate alkylperoxy radicals in the presence of oxygen molecules at 37 °C [53]. […] Pyrroles 1 and 2 with high lipophilicity (ClogP of 1 = 5.7, ClogP of 2 = 5.05; RM of 1 = 0.3076, RM of 2 = 0.0116) and molecular volume (MV of 1 = 318, MV of 2 = 290) values appeared to be weak antioxidants (34% and 33% at 100 μM, respectively). […] The presence of a bulkier substituent Ar^2 decreased the anti-lipid peroxidation activity of 5 (36% at 100 μM) compared to 8 (58% at 100 μM).
In vitro enzymatic assay was conducted as reported in previous studies. 2,2′-Azobis(2-methylpropionamidine) dihydrochloride (AAPH) was used as a controllable source of thermally produced alkylperoxy free radicals. The production of conjugated diene hydroperoxides via the oxidation of sodium linoleate in an aqueous dispersion at 37 °C was monitored at 234 nm. The results were compared to the reference compound, trolox (93%) (Table 2).

For data set [3], the target named is T1, soybean lipoxygenase isoenzyme-1 (SLOX-1) (Glycine max, UniProt P08170).
T1 construct: purchased Sigma Chemical, Co. (St. Louis, MO, USA)
T1 sequence (P08170 1-839): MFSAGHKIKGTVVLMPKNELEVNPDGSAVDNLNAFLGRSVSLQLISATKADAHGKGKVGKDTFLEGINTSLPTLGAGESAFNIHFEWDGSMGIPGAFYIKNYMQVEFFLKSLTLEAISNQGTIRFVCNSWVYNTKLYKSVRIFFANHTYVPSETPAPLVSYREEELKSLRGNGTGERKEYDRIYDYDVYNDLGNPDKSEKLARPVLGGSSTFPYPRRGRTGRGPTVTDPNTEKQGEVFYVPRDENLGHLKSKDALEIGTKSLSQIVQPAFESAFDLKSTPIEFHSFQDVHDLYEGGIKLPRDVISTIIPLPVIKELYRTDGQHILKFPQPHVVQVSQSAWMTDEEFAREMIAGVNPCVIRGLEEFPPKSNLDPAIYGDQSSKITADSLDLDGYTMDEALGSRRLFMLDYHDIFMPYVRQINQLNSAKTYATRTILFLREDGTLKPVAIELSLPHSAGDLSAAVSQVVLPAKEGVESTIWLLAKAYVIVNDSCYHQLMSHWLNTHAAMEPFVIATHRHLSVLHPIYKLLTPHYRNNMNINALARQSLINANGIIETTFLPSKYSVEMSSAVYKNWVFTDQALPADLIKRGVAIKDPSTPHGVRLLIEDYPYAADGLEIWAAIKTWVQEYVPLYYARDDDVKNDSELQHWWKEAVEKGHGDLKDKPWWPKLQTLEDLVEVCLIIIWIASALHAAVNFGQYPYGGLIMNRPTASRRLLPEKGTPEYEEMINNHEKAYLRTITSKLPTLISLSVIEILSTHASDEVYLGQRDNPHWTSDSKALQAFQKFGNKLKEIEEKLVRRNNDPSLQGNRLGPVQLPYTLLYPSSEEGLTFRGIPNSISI
The experiment in a line: Inhibition of soybean lipoxygenase in vitro. The data set is classed as biochemical. The conditions noted are these: soybean LOX; for IC50: pH 9.00, ± SD, read-out: LOX Inh. IC50. Here is the method: In vitro anti-LOX activities were measured against soybean lipoxygenase isoenzyme-1 (SLOX-1), which is widely used as a model for mammalian LOXs.
An in vitro study was conducted as reported previously. The tested compounds were dissolved in DMSO (100 µM) and incubated at room temperature with sodium linoleate (0.1 mL) as a substrate and 0.2 mL of a soybean lipoxygenase solution in a buffer solution of Tris:HCl (pH 9.00).

Data set [4] has as its target T2, ovine COX-2 (Ovis aries, UniProt P79208).
T2 sequence (P79208 17-603): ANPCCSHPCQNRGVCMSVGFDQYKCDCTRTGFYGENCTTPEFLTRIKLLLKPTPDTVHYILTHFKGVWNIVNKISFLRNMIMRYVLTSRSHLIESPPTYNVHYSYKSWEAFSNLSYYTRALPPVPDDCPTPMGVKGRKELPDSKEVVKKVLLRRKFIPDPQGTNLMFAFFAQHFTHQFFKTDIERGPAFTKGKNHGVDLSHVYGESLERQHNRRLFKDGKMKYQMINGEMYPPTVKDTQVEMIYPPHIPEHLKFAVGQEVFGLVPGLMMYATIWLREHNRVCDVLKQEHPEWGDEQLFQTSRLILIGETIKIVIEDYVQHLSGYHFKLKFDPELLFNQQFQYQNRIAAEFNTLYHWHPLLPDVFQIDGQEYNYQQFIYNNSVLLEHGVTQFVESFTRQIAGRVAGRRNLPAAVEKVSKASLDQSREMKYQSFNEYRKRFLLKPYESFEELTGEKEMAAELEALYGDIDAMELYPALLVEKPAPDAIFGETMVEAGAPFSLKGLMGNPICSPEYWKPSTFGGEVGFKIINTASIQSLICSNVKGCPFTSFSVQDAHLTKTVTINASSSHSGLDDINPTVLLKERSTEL
The experiment in a line: Inhibition of ovine cyclooxygenase-2 (TMPD co-substrate). The conditions noted are these: for inhibition at 100 µM: read-out: COX-2 Inh. % at 100 μM, 100 μM, ovine COX-2.
Procedure: The oxidized TMPD has an absorbance maximum at 590 nm. COXs require heme (Fe^3+-protoporphyrin IX) as a cofactor which may dissociate from the protein during its purification. Therefore, in the in vitro enzymatic assay of ovine COX-2 inhibition, heme is added to ensure maximal enzyme activity [54]. […] The in vitro COX-2 inhibitory activity was determined using arachidonic acid (AA) as a substrate and N,N,N′,N′-tetramethyl-p-phenylenediamine (TMPD) as a co-substrate in a buffer solution of Tris:HCl (pH 8.5) [27]. Ten microliters of the DMSO solution of the compound of interest were added in a test tube containing 730 μL of buffer Tris:HCl (pH 8.5), 50 μL of heme, 10 μL of COX-2 and 100 μL of TMPD. […] A blank determination was used first to serve as a negative control.

The conditions of data set [5]: cited from earlier work.
For data set [6], the system named is COX-1. The conditions noted are these: Figure 1; cited from earlier work.
Data set [7] has as its system 5-LOX. The conditions noted are these: Figure 1; cited from earlier work.
The subject of data set [8] is paw edema. The conditions noted are these: Figure 1; cited from earlier work.
Details of data set [9]: method as in doi:10.3390/M1314. The conditions noted are these: RPTLC; cited from earlier work.
On the set-up of data set [10]: method as in doi:10.3390/M1314. The conditions noted are these: Molinspiration software; cited from earlier work.
Data set [11] deals with T1, soybean lipoxygenase isoenzyme-1 (SLOX-1). The conditions noted are these: soybean LOX; read-out: LOX Inh. IC50; cited from earlier work.
Data set [12] addresses T2, ovine COX-2. Set-up: purchased Cayman. The conditions noted are these: read-out: COX-2 Inh. IC50; cited from earlier work.
The subject of data set [13] is COX-2. The conditions noted are these: Figure 1; cited from earlier work.

What is called IC50 is the concentration that inhibits the measured activity by half.

Values joined by “and” are separate entries in the source; they are usually repeats but may differ in a detail not shown here. Equal entries are not always repeated. Where two headings read alike, the source gives them in different places.

Turning to `CN(C)c1ccc(/C=C/c2cn(C(=O)/C=C/c3ccccc3)cc2C(=O)c2ccccc2)cc1` [compound 5, (E)-1-(3-benzoyl-4-((E)-4-(dimethylamino)styryl)-1H-pyrrol-1-yl)-3-phenylprop-2-en-1-one], in [1], the RM was −0.4174. In data set [2] (100 µM), the “ILP % at 100 μM (inhibition of lipid peroxidation)” value is 36% and 36.4 ± 0.4%. In addition, the IC50 in data set [3] was found to be 30 ± 1.6 µM; in data set [4] it was 0.55 ± 0.3 µM.

For the compound `CN(C)c1ccc(-c2c[nH]cc2C(=O)c2ccc(Cl)cc2)cc1` [compound 2, (4-chlorophenyl) (4-(4-(dimethylamino)phenyl)-1H-pyrrol-3-yl) methanone], the RM in data set [1] came out at 0.0116. The “ILP % at 100 μM (inhibition of lipid peroxidation)” value in [2] (100 µM) was 33% and 32.8 ± 0.8%. Also, in data set [3], the half-inhibitory concentration (IC50) amounted to 7.5 ± 0.5 µM. Besides, the inhibition at 100 µM in [4] was determined as 17%.

In the case of `CN(C)c1ccc(/C=C/c2c[nH]cc2C(=O)c2ccc(Cl)cc2)cc1` [compound 1, (E)-(4-chlorophenyl) (4-(4-(dimethylamino)styryl)-1H-pyrrol-3-yl)methanone], the RM in data set [1] was 0.3076. For the same compound, in data set [2] (100 µM), the “ILP % at 100 μM (inhibition of lipid peroxidation)” value was 34% and 33.8 ± 1.3%. Moreover, the 50% inhibitory concentration (IC50) is 51.5 ± 1.7 µM in [3] and 10 ± 0.8 µM in data set [4].

Consider `O=C(O)/C=C/c1ccccc1` [Cinnamic acid, reference compound], for which the “ILP % at 100 μM (inhibition of lipid peroxidation)” value in [5] was 78 ± 3.2%.

As for `COc1ccc(/C=C2\SC(=S)N(NC(=O)c3sc4ccccc4c3Cl)C2=O)cc1OC` [II], the IC50 in [6] was 3.4 µM; in data set [7], 2.33 µM. For the same compound, the “% paw edema reduction (in vivo)” value in data set [8] is 93.26%.

As to `O=C(c1ccccc1)c1cn(C(=O)/C=C/c2ccccc2)cc1-c1ccccc1` [compound 8, (E)-1-(3-Benzoyl-4-Phenyl-1H-Pyrrol-1-Yl)-3-Phenylprop-2-En-1-One], the RM in data set [9] was −0.4771. Besides, the miLogP in [10] is given as 6.26. In addition, the “ILP % at 100 μM (inhibition of lipid peroxidation)” value in data set [5] (100 µM) was 58% and 58.1 ± 1.8%. Further, the values for the half-inhibitory concentration (IC50) in [11] and in [12] were 39 ± 2.3 µM and 6 ± 0.1 µM, respectively.

Turning to `O=C(c1ccccc1)c1c[nH]cc1-c1ccccc1` [compound 4], in data set [9], the RM is given as −0.4102. In addition, the miLogP in data set [10] is 3.96. For the same compound, the “ILP % at 100 μM (inhibition of lipid peroxidation)” value in data set [5] (100 µM) is 44% and 44.3 ± 1.1%. The IC50 was 100 ± 3.3 µM in data set [11] and 0.65 ± 0.1 µM in [12].

With `COc1cc(/C=c2\c(=O)[nH]n3c(=O)c4ccccc4nc23)cc(OC)c1OC` [I], the IC50 in [6] is 0.668 ± 0.0212 µM; in [13] it was 0.047 ± 0.0027 µM; in data set [7] it was 2.3 ± 0.13 µM.

As to `Cc1ccc(C(C)C)c(O)c1/C=N/NC(=O)c1cc(-c2ccccc2)n[nH]1` [IV], the 50% inhibitory concentration (IC50) in data set [6] was 10.3 ± 0.1 µM; in [13] it was 0.068 ± 0.01 µM; in data set [7] it was 3.05 ± 0.067 µM. In addition, the “% paw edema reduction (in vivo)” value in [8] is 81.93%.

Take `Cc1c(C)c2c(c(C)c1O)CCC(C)(C(=O)O)O2` (centres unmarked) [Trolox, reference compound]: in data set [2], the “ILP % at 100 μM (inhibition of lipid peroxidation)” value amounted to 93 ± 2.5%.

As for `CN(C)c1ccc(-c2c[nH]cc2C(=O)c2cccs2)cc1` [compound 3, (4-(4-(dimethylamino)phenyl)-1H-pyrrol-3-yl) (thiophen-2-yl) methanone], in [1], the RM is −0.3340. Further, the “ILP % at 100 μM (inhibition of lipid peroxidation)” value was “inactive” in [2]; “no action at all and no” in data set [2] (100 µM). Further, the inhibition at 100 µM in data set [3] (pH 9, 100 μM, pH 9.00, read-out: LOX Inh. % at 100 μM) was determined as 43%; in [4], 12%.

The compound `CN(C)c1ccc(-c2cn(C(=O)/C=C/c3ccccc3)cc2C(=O)c2ccc(Cl)cc2)cc1` [compound 6, (E)-1-(3-(4-chlorobenzoyl)-4-(4-(dimethylamino)phenyl)-1H-pyrrol-1-yl)-3-phenylprop-2-en-1-one] registered an RM in [1] of −0.4771. For the same compound, the “ILP % at 100 μM (inhibition of lipid peroxidation)” value in data set [2] (100 µM) was 62% and 61.6 ± 2.3%. Besides, the IC50 in [3] was 27.5 ± 1.3 µM; in data set [4] it was 7 ± 0.6 µM.

Take `CN(C)c1ccc(-c2cn(C(=O)/C=C/c3ccccc3)cc2C(=O)c2cccs2)cc1` [compound 7, (E)-1-(3-(4-(dimethylamino)phenyl)-4-(thiophene-2-carbonyl)-1H-pyrrol-1-yl)-3-phenylprop-2-en-1-one]: in data set [2] (100 µM), the “ILP % at 100 μM (inhibition of lipid peroxidation)” value is 31% and 31.1 ± 1.1%. Also, the IC50 in data set [3] came to 35 ± 1.6 µM; in data set [4], 7.2 ± 0.3 µM.

Consider `COc1ccc(C=NNC(=O)c2sc3ccccc3c2Cl)cc1OC` [III], for which the IC50 in data set [6] was 2.9 µM; in data set [13], 0.68 µM; in data set [7] it was 1.87 µM. In addition, in data set [8], the “% paw edema reduction (in vivo)” value is on record as 89.8%.
